# Assay results: paper PMC5216352, “Disulfide isomerase-like protein AtPDIL1–2 is a good candidate for trichlorophenol phytodetoxification” (Scientific Reports, 2017)
# Target: T1, AtPDIL1-2 (Arabidopsis thaliana, UniProt Q9SRG3)
# T1 construct: gene PDIL1-2; full-length cDNA (1527 bp ORF, start codon to C-terminal KDEL) in pET-32a, His-tagged fusion about 72 kDa, E. coli, Ni-NTA purified
# T1 sequence (Q9SRG3 1-508): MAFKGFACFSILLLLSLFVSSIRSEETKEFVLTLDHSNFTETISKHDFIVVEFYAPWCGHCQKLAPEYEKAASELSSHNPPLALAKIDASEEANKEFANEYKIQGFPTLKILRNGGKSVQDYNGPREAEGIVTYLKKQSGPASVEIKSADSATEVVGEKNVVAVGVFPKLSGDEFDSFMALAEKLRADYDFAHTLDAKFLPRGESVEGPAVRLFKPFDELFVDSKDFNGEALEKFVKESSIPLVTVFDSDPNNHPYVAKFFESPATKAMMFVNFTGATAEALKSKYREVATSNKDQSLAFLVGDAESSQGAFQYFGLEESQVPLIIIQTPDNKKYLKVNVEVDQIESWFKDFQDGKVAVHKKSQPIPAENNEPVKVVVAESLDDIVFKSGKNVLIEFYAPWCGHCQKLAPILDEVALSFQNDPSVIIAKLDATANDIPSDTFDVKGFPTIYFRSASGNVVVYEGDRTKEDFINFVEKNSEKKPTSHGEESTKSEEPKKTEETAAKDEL
# Assay: RNase A oxidative refolding assay, cCMP hydrolysis at […] nm
# Type: biochemical
# Conditions: 3.5 uM protein, 10 uM reduced denatured RNase, 4.5 mM cCMP, 1 mM GSH, 0.2 mM GSSG, pH 8; TCP concentration not given
smiles,measurement,value
"Oc1c(Cl)cc(Cl)cc1Cl [2,4,6-TCP]",maximum inhibition,16%
